Laboratory results: ChEMBL document CHEMBL1201862, “PubChem BioAssay data set” (2004)
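Test compounds were applied to cells in 96-well plates for 48 hours at 5 doses. Abbreviation: GI50, concentration required for 50% inhibition of growth.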 Active and inactive are the calls of the source. No stated cut-off is given here; in the data, active = GI50 up to about 1.1 µM and inactive = higher.

Experiments:
Assay in all cases: NCI-60 cell line screen, 48 h
DLD-1 = tested on: DLD-1
DMS-114 = tested on: DMS-114
DMS-273 = tested on: DMS-273
KM-20L2 = tested on: KM-20L2
LXFL 529 = tested on: LXFL 529
M19-MEL = tested on: M19-MEL
RXF 631 = tested on: RXF 631
SNB-78 = tested on: SNB-78
XF498 = tested on: XF498

Compound	GI50 (DLD-1)	GI50 (DMS-114)	GI50 (DMS-273)	GI50 (KM-20L2)	GI50 (LXFL 529)	GI50 (M19-MEL)	GI50 (RXF 631)	GI50 (SNB-78)	GI50 (XF498)
CCCCCCCCCCNC(=S)OC	36.8 µM (inactive)	15.6 µM (inactive)	51.5 µM (inactive)	32.7 µM (inactive)	33.7 µM (inactive)	29 µM (inactive)	62.1 µM (inactive)	53.3 µM (inactive)	
Cc1ccc(C)c(N2C(=O)C(=O)C(c3nc4ccccc4o3)/C(=N\NC(=O)c3ccccc3O)C2=O)c1 (stereo not drawn)	28.9 µM (inactive)	20.1 µM (inactive)	6.14 µM (inactive)	41.1 µM (inactive)	31.8 µM (inactive)	64.7 µM (inactive)		6.08 µM (inactive)	
Clc1ccc(C[P+](c2ccccc2)(c2ccccc2)c2ccccc2)cc1Cl	9.2 µM (inactive)	1.52 µM (inactive)	2.01 µM (inactive)	2.94 µM (inactive)		1.79 µM (inactive)		25.8 µM (inactive)	1.32 µM (inactive)
CCN(CC)CCCNC(=O)C1COc2cc(-c3cc(=O)c4ccccc4o3)ccc2O1 (stereo not drawn)	65.3 µM (inactive)	25.4 µM (inactive)	65.5 µM (inactive)	34.8 µM (inactive)	53 µM (inactive)	20.9 µM (inactive)	34.4 µM (inactive)	> 100 µM (inactive)	
CN(O)C(=O)c1ccccc1	> 100 µM (inactive)	> 100 µM (inactive)	> 100 µM (inactive)	> 100 µM (inactive)	> 100 µM (inactive)	> 100 µM (inactive)	> 100 µM (inactive)		> 100 µM (inactive)
O=C(O)Cc1cc(=O)[nH]c2c1/C(=N/O)CCC2	> 100 µM (inactive)				> 100 µM (inactive)				> 100 µM (inactive)
CCOC(=O)Oc1c(OC)cc(C(=O)NC2CCc3cc(OC)c(OC)c(OC)c3-c3ccc(SC)c(=O)cc32)cc1OC (stereo not drawn)	0.0723 µM (active)	0.0261 µM (active)	< 0.007 µM (active)	0.0853 µM (active)	0.0386 µM (active)	0.047 µM (active)		0.0489 µM (active)	0.0681 µM (active)
C=C1C2Oc3ccccc3C1N(c1ccccc1)O2 (stereo not drawn)	26.7 µM (inactive)	23.3 µM (inactive)	> 10 µM (inactive)	37.6 µM (inactive)	35.2 µM (inactive)	42.7 µM (inactive)	16 µM (inactive)		17.4 µM (inactive)
CCCCc1c2c(nc3c1CCCC3=O)C(=O)CCC2	> 100 µM (inactive)	> 100 µM (inactive)	> 100 µM (inactive)	> 100 µM (inactive)	> 100 µM (inactive)	> 100 µM (inactive)		> 100 µM (inactive)	> 100 µM (inactive)
Cc1ccc([N+](=O)[O-])cc1NC(=O)C(=O)Cc1occc(=O)c1O	> 100 µM (inactive)	> 100 µM (inactive)		> 100 µM (inactive)		> 100 µM (inactive)			> 100 µM (inactive)
CCOC(=O)c1sc(Nc2cc(Cl)ccc2Cl)nc1C	44.7 µM (inactive)	93.3 µM (inactive)		54.7 µM (inactive)	91.4 µM (inactive)	> 100 µM (inactive)	> 100 µM (inactive)	> 100 µM (inactive)	48.4 µM (inactive)
COc1ccc(-c2onc(-c3ccc([N+](=O)[O-])cc3)c2C2=NCCCN2)cc1	> 100 µM (inactive)			44.3 µM (inactive)	> 100 µM (inactive)	> 100 µM (inactive)		> 100 µM (inactive)	> 100 µM (inactive)
O=C(O)/C(Cl)=C(\Cl)C(=O)c1ccccc1	> 100 µM (inactive)	> 100 µM (inactive)	> 100 µM (inactive)	> 100 µM (inactive)	> 100 µM (inactive)	> 100 µM (inactive)		> 100 µM (inactive)	> 100 µM (inactive)
COc1ccc(-c2nc(SC)n(C3OC(COC(C)=O)C(OC(C)=O)C(OC(C)=O)C3OC(C)=O)c(=O)c2C#N)cc1 (stereo not drawn)				95.5 µM (inactive)	35.2 µM (inactive)			21 µM (inactive)	
CC(C)c1cccc2sc(NC(=O)C(=O)CC(=O)c3ccc(F)cc3)nc12	> 100 µM (inactive)	> 100 µM (inactive)	> 100 µM (inactive)	> 100 µM (inactive)	> 100 µM (inactive)	> 100 µM (inactive)	> 100 µM (inactive)	> 100 µM (inactive)	> 100 µM (inactive)
CC1=C(C(=O)NCc2ccccc2)C(c2ccc(C3C(C(=O)NCc4ccccc4)=C(C)NC(C)=C3C(=O)NCc3ccccc3)cc2)C(C(=O)NCc2ccccc2)=C(C)N1	3.44 µM (inactive)	12.6 µM (inactive)	9.42 µM (inactive)	13.9 µM (inactive)	4.58 µM (inactive)	8.39 µM (inactive)		9.46 µM (inactive)	14.9 µM (inactive)
Cc1cc2nc3c(=O)n(C)c(=O)nc-3n(-c3ccc(Cl)cc3)c2cc1C	14.5 µM (inactive)	3.1 µM (inactive)	5.62 µM (inactive)	3.62 µM (inactive)	14 µM (inactive)	2.32 µM (inactive)		18.5 µM (inactive)	1.29 µM (inactive)
CC(Oc1ccc(OCC2CCCCC2)cc1)C(=O)N(CCO)CCO (stereo not drawn)		> 100 µM (inactive)	> 100 µM (inactive)		> 100 µM (inactive)	> 100 µM (inactive)		> 100 µM (inactive)	> 100 µM (inactive)
Nc1ccn(C2OC(CO)C(O)C2O)c(=O)n1 (stereo not drawn)	481 µM (inactive)	0.173 µM (active)	1.74 µM (inactive)	64 µM (inactive)	> 443 µM (inactive)	6.43 µM (inactive)			434 µM (inactive)
